In patent US7560102B2, “Method for reducing neuronal degeneration so as to ameliorate the effects of injury or disease” (Yeda Research and Development Co., Ltd, priority 1998, dated 2009):

Experiments:
[1] = tested on: retinal ganglion cells (RGCs); assay: Optic nerve crush injury after immunization with MOG p35-55, retrograde labeling of RGCs; type: in vivo, rat; details: 50 μg/animal with IFA intradermally in footpads ten days prior to crush; two weeks after injury
Procedure: FIG. 10 is a graph illustrating inhibition of secondary degeneration after optic nerve crush injury in adult rats. See text, Example 3, for experimental details. Rats were injected intradermally through the footpads with a 21-mer peptide based on MOG amino acid residues 35-55 (MOG p35-55) (([…], chemically synthesized at the Weizmann Institute of Science, Rehovot, Israel) or PBS ten days prior to optic nerve crush injury or MOG p35-55 in the absence of crush injury. MOG p35-55 was administered with IFA. Surviving optic nerve fibers were monitored by retrograde labeling of RGCs. The number of RGCs in rats injected with PBS or MOG p35-55 was expressed as a percentage of the total number of neurons in rats injected with MOG p35-55 in the absence of crush injury.
Rats were injected intradermally in the footpads with MOG p35-55 (50 μg/animal) and IFA, or PBS, ten days prior to optic nerve crush injury. RGCs were assessed two weeks after injury using retrograde labeling as described above. The number of RGCs in rats injected with PBS or MOG p35-55 was expressed as a percentage of the total number of neurons in rats injected with MOG p35-55 in the absence of crush injury.

[2] = tested on: contused spinal cord; assay: Spinal cord contusion, post-traumatic immunization with Nogo p472, BBB hindlimb motor score; type: in vivo, SPD rats
[3] = tested on: retinal ganglion cells (RGCs); assay: Optic nerve crush injury after oral MBP, retrograde labeling of RGCs; type: in vivo, Lewis rats; details: fed antigen from ten days before mild crush injury (FIG. 14)
Procedure: MBP (Sigma, Israel) (1 mg in 0.5 ml saline) was administered orally to adult rats by gavage using a blunt needle. MBP was administered 5 times, i.e., every third day beginning two weeks prior to optic nerve crush injury. Surviving optic nerve fibers were monitored by retrograde labeling of RGCs. The number of RGCs in treated rats was expressed as a percentage of the total number of neurons in untreated rats following the injury.
Lewis rats were fed 1 mg MBP daily, or every other day, or 4 times a day at two-hour intervals for five consecutive days. Control animals were given PBS or the non-self antigen OVA Sigma, Israel). Ten days after the start of MBP ingestion, the right optic nerves were subjected to a calibrated mild crush injury. Two weeks later the RGCs were retrogradely labelled by application of the fluorescent lipophilic dye 4-Di-10-Asp(Molecular Probes Europe BV, Netherlands), distally to the site of injury, as described. […] Six days after dye application, the retina was detached from the eye, prepared as a flattened whole mount in 4% paraformaldehyde solution, and examined for labeled RGCs by fluorescence microscopy. RGCs were counted from three different regions in the retina. The results are expressed as normalized percentage of each retina to untreated injured animal mean of the same experiment. […]

## MOG p35-55: 21-mer peptide based on amino acids 35-55 of MOG, chemically synthesized, given with IFA (MEVGWYRSPFSRVVHLYRNGK; given with IFA; UniProt Q61885 63-83, looked up, fragment)
[1]
  number of labeled RGCs compared to animals receiving PBS: about 12.5 fold

## p472: 18-mer peptide, residues 623-640 of rat Nogo-A (SEQ ID NO:19), emulsified in CFA (SYDSIKLEPENPPPYEEA; emulsified in CFA; listed as Rattus norvegicus)
[2]; 100 μg/rat in CFA s.c. after contusion, female and male rats, P<0.01
  overall functional recovery compared to control rats (PBS in CFA or PBS only): significantly improved
[2]; female rats, 50 mm, boosted one week after injury
  day from which hind limb locomotion was significantly better than PBS-treated controls: 25 days
[2]; male rats
  day after injury from which locomotor performance was significantly better than PBS+CFA-treated controls: 11 days

B1: OVA: non-self antigen ovalbumin (Sigma) fed to control rats (protein, UniProt P01012 2-386, looked up)
Ovalbumin: GSIGAASMEFCFDVFKELKVHHANENIFYCPIAIMSALAMVYLGAKDSTRTQINKVVRFDKLPGFGDSIEAQCGTSVNVHSSLRDILNQITKPNDVYSFSLASRLYAEERYPILPEYLQCVKELYRGGLEPINFQTAADQARELINSWVESQTNGIIRNVLQPSSVDSQTAMVLVNAIVFKGLWEKAFKDEDTQAMPFRVTEQESKPVQMMYQIGLFRVASMASEKMKILELPFASGTMSMLVLLPDEVSGLEQLESIINFEKLTEWTSSNVMEERKIKVYLPRMKMEEKYNLTSVLMAMGITDVFSSSANLSGISSAESLKISQAVHAAHAEINEAGREVVGSAEAGVDAASVSEEFRADHPFLFCIKHIATNAVLFFGRCVSP
[3]
  number of surviving RGCs two weeks after optic nerve injury vs control group: ns
